According to patent US9649378B2, “Cancer methods” (priority 2010, dated 2017):
Values joined by “and” are separate entries in the source; they are usually repeats but may differ in a detail not shown here. Equal values may be shown once. Read-outs that look alike come from different tables or passages of the source. Values belong to the molecule of their own block, whether it stands above or below them.

Columns and labels:
phospho-ERK [1] = test: EGF induced phospho-ERK activation in OPCML transfected (BKS2.1) and control (SKOBS-V1.2) cells
Procedure: (§4) (B) The effect of OPCML knockdown on the efficiency of lapatinib-induced pERK attenuation was analysed; densitometry of pERK signal (mean values of 3 independent experiments).
OPCML transfected and control cells were pre-incubated with lapatinib, trastuzumab, cituximab, erlotinib and gefitinib.

[2] = test system: HER2 3+ recurrent disease (ovarian and breast cancer); test: response to lapatinib in patients by RECIST criteria versus OPCML IHC; format: in vivo, human; set-up: key: SD = stable disease; PR = partial response; PD = progressive disease; settings: individual cases 1-8, HER2 3+
Procedure: We next tested whether OPCML could be used to predict response to lapatinib in ovarian and breast cancer. Histology was obtained by new biopsy of recurrent disease and TTP (time in months to progression from start of therapy until progression) assessed. Docetaxel and anthracyclines were administered for a maximum of 6 cycles and capecitabine was administered until disease progression or unacceptable toxicity. HER2 immunohistochemistry (IHC) was performed using the Dako Herceptest kit: 3+ in all cases.

phospho-ERK [3] = test: lapatinib-induced pERK attenuation after OPCML siRNA knockdown in OSE-C2 cells
Procedure: as §4
Endogenous OPCML was knocked down in OSE-C2 cells by transient transfection of a specific pool of 3 siRNAs (Stealth knockdown-Invitrogen) using lipofectamine RNAiMAX reagent.
We then investigated whether siRNA knockdown of physiological OPCML expression in normal OSE-C2 cells could affect sensitivity to lapatinib.

OPCML [4] = test: induction of OPCML expression by growth factors in a panel of ovarian cancer cell lines; format: cell-based; settings: data not shown
From the text: OPCML is a non-transmembrane, external lipid leaflet GPI-anchored protein, and is frequently lost from cells by somatic inactivation of the gene.

OPCML [5] = test: induction of OPCML expression by growth factors in serum starved SK-OV-3 cells (qRT-PCR, Western); format: cell-based; settings: 50 ng/ml EGF
Procedure: Quantitative reverse-transcription PCR (qRT-PCR) analysis of gene expression was carried out on an Applied Biosystems 7900HT thermal cycler using SYBR green I technology. Premixed qPCR reagent, Platinum® Quantitative PCR SuperMix-UDG with ROX (Invitrogen, UK), was used for amplification. The expression of specific genes was normalized to the expression of the endogenous control gene HPRT1.

EGFR = target: T1, EGFR (Homo sapiens, UniProt P00533); test: GST-OPCML pull-down assay; format: binding; settings: SK-OV-3 cell lysate
T1 construct: pull-down experiments with either SK-OV-3 cell lysates (expressing HER2 and EGFR); endogenous in cells; host or cells: SK-OV-3
Procedure: (§1) FIG. 2: OPCML interacts with the ECD of HER2 and FGFR1 but not EGFR. (A) (i): Co-IP was performed using protein extracts from SKOBS-V1.2, SKOBS-3.5 and BKS2.1 (SKOBS-3.5 and BKS2.1 express 3 and 20-fold more OPCML protein than normal physiological levels seen in OSE-C2). The goat polyclonal anti-OPCML (R & D Systems) was used in initial IP and products were detected on Western blots employing respective Abs for EGFR and HER2. The reciprocal IP with a monoclonal to ECD of HER2 (Calbiochem) is shown with successful immunoblotting for OPCML in the BKS2.1 stable line (expressing 20-fold more OPCML); (ii) Co-IP using the OPCML Ab in SKOBS-V1.2 and BKS2.1 lines were immunoblotted with anti-FGFR1αECD Ab. (B) A structural representation of GST-OPCML 1+2 and GST-OPCML 1+2+3 constructs with subsequent Western blot analysis of the fusion proteins. […] FGFR1 was also shown to bind GST-OPCML 1+2+3 and GST-OPCML 1+2 from the same pull-down with lysate from SK-OV-3 cells transiently transfected with FGFR1 cDNA.
(§2) FIG. 17: OPCML directly interacts with EphA2, FGFR1 and HER2, but not EGFR. (A) Immuno-precipitation (IP) for OPCML showing positive immunoblots for EphA2, FGFR1 and HER2. […] (B) A schematic representation of GST-OPCML domain 1-3 construct. (C). […] The presence of OPCML fusion proteins in these assays was verified by immunoblotting (IB, bottom panel).
(§3) Pull-down assays were performed using recombinant GST-OPCML fusion proteins bound to magnetic glutathione beads (Promega). Cell lysates prepared as for immunoprecipitation, proteins produced using TNT in vitro Rabbit reticulocyte lysate expression system (Promega) or expressed in bacteria were used analysed for interactions.

FGFR1 = test: GST-OPCML pull-down assay; format: binding; settings: lysate of FGFR1 transfected cells or FGFR1 ECD protein
Sequence of FGFR1 (P11362 22-376 limits assumed): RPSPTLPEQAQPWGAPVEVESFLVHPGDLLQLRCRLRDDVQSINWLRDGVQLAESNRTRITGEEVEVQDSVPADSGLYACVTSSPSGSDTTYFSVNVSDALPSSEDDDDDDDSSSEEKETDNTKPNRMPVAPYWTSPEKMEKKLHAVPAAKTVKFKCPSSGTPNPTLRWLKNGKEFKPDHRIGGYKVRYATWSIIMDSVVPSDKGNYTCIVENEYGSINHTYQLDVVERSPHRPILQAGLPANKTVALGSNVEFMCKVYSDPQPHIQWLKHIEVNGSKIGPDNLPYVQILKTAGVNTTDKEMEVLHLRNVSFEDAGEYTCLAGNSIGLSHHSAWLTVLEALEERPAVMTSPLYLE
Procedure: as §1, §2, §3

HER2 = test: GST-OPCML pull-down assay; format: binding; settings: SK-OV-3 lysate or in vitro translated HER2ECD
Procedure: as §1, §2, §3

[6] = OPCML transfected versus control cells, EGF induced phospho-ERK

Molecule: C#Cc1cccc(Nc2ncnc3cc(OCCOC)c(OCCOC)cc23)c1 [erlotinib]
OPCML mediated sensitization (phospho-ERK [1]): no sensitization

Molecule: COc1cc2ncnc(Nc3ccc(F)c(Cl)c3)c2cc1OCCCN1CCOCC1 [gefitinib]
OPCML mediated sensitization (phospho-ERK [1]; [6]): no sensitization

Molecule: CS(=O)(=O)CCNCc1ccc(-c2ccc3ncnc(Nc4ccc(OCc5cccc(F)c5)c(Cl)c4)c3c2)o1.Cc1ccc(S(=O)(=O)O)cc1.Cc1ccc(S(=O)(=O)O)cc1.O [lapatinib, N-(3 chloro-4-{[(3-fluorophenyl)methyl]oxy}phenyl)-6-[5-({[2(methylsulfonyl)ethyl]amino}methyl)-2-furanyl]-4-quinazolinamine bis (4 methylbenzenesulfonate) monohydrate]
Response to lapatinib [2]: SD (2×) and PD (2×) and PR (4×) | extent of inhibition of pERK signal (phospho-ERK [3]; knockdown by siRNA to OPCML, P=0.0009): 47% | reduction of EGF-induced pERK signal (phospho-ERK [3]; non-silencing (non-si) duplex, densitometry, mean of 3 experiments): 70% | increase in sensitivity: reduction of effective concentration required to abolish the phospho-ERK signal (phospho-ERK [1]; BKS2.1 compared with SKOBS-V1.2, EGF 50 ng/ml, monohydrate): > 10 fold and 10 fold | OPCML mediated sensitization (phospho-ERK [1]; [6]): strong OPCML mediated sensitization

Molecule: EGF: human recombinant epidermal growth factor (Promega)
ovarian cancer cell lines with rapid OPCML RNA and protein expression, of lines treated (OPCML [4]): 4/4 | time of maximal OPCML mRNA expression (OPCML [5]): 30 min

binding of EGFR (EGFR): no binding of EGFR
Molecule: GST-OPCML D1+2+3: full length OPCML extracellular domain (Ig domains 1-3) fused to GST
interaction with FGFR1 (FGFR1): interacted with FGFR1 | interaction with FGFR1 (FGFR1; listed as GST-OPCML 1+2+3): shown to bind | interaction with FGFR1 (FGFR1; listed as GST-OPCML 1-3): specific binding | interaction with FGFR1 (FGFR1; listed as GST-OPCML D1-3): interacting specifically | interaction with HER2 (HER2): interacted | interaction with HER2 (HER2; listed as GST-OPCML 1+2+3): binding of HER2 | interaction with HER2 (HER2; listed as GST-OPCML 1-3): specific binding | interaction with HER2 (HER2; listed as GST-OPCML D1-3): interacting specifically

Molecule: GST-OPCML D1+2: truncated OPCML ECD lacking Ig domain 3 fused to GST
interaction with FGFR1 (FGFR1): interacted with FGFR1 | interaction with FGFR1 (FGFR1; listed as GST-OPCML 1+2): shown to bind

Molecule: GST-OPCML D2+3: GST/OPCML domain fusion protein with domains 2 and 3
interaction with FGFR1 (FGFR1): interacted with FGFR1
